Assay results from US20250276107A1, “HYDROGEL SYSTEMS AND METHODS FOR TREATING FISTULA AND OTHER INDICATIONS” (Terasaki Institute for Biomedical Innovation, priority 2024, published 2025).

Test system: red blood cells (RBCs)
Assay: Hemolysis test with diluted whole human blood
Type: cell-based
Details: 2 h, physiological temperature
Method: In the development of bioadhesives, it is important to assess hemocompatibility to evaluate whether the materials damage the blood cells. For this purpose, a standard hemolysis test was performed by exposing crosslinked hydrogels to diluted sodium citrate-treated whole human blood for 2 h at physiological temperature. The presence of a toxic effect was assessed visually by observing the appearance of a red-colored supernatant after centrifugation, indicating the release of hemoglobin from ruptured red blood cells (RBCs). […] After incubation with hydrogels, intact RBCs were efficiently sedimented through centrifugation, similar to the saline negative control. […] The disruption of RBCs was further assessed through colorimetric analysis, with the calculated percent hemolysis induced by the hydrogels presented in FIG. 6A(II). The hemolysis level of the hydrogels at all tested PDA concentrations remained below the acceptable limit (≤5%).

Triton X-100
supernatant colour after centrifugation (visual hemolysis): reddish supernatant
